Laboratory results from US10597388B2, “Pyridazinone herbicides” (FMC CORPORATION, priority 2014, dated 2020).

Legend:
Type in all cases: in vivo
[1] = system: waterhemp_RES1 (ALS & Triazine resistant common waterhemp, Amaranthus rudis); experiment: Test E greenhouse herbicide test, postemergence
Outline: (§1)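 Values are visual ratings from 0 (no effect) to 100 (complete control), scored relative to untreated controls 14 to 21 d after treatment. Plants were 1- to 4-leaf seedlings (2 to 18 cm) in potting medium and received postemergence applications of formulated test chemicals.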

[2] = system: waterhemp_RES2 (ALS & HPPD resistant common waterhemp, Amaranthus rudis); experiment: Test E greenhouse herbicide test, postemergence
Outline: as §1

[3] = system: pigweed, palmer (palmer pigweed, Amaranthus palmeri); experiment: Test E greenhouse herbicide test, pre- and postemergence
Outline: (§2)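 Scores (0–100, visual, vs controls) reflect greenhouse growth of 14 to 21 d after treatment. Application was pre-emergence to silt loam or post-emergence at the 1- to 4-leaf stage.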

[4] = system: kochia (Kochia scoparia); experiment: as above
Outline: as §2

[5] = system: barnyardgrass (Echinochloa crus-galli); experiment: as above
Outline: as §2

[6] = system: crabgrass, large (large crabgrass, Digitaria sanguinalis); experiment: as above; conditions: Preemergence
Outline: as §2

[7] = system: goosegrass (Eleusine indica); experiment: as above; conditions: Preemergence
Outline: as §2

[8] = system: horseweed (Conyza canadensis); experiment: as above
Outline: as §2

[9] = system: ragweed (common ragweed, Ambrosia elatior); experiment: as above
Outline: as §2

[10] = system: Italian ryegrass (Lolium multiflorum); experiment: as above
Outline: as §2

[11] = system: soybean (Glycine max); experiment: as above
Outline: as §2

[12] = system: beggarticks (hairy beggarticks, Bidens pilosa); experiment: as above
Outline: as §2

[13] = system: crabgrass, Brazilian (Brazilian crabgrass, Digitaria horizontalis); experiment: as above
Outline: as §2

[14] = system: dayflower (Virginia (VA) dayflower, Commelina virginica); experiment: as above
Outline: as §2

[15] = system: sandbur (southem sandbur, Cenchrus echinatus); experiment: as above
Outline: as §2

[16] = 16 g ai/ha, visual, scale 0 no effect to 100 complete control
[17] = 31 g ai/ha, visual, scale 0 no effect to 100 complete control
[18] = 125 g ai/ha, scale 0 to 100 (0 no effect, 100 complete control)
[19] = 62 g ai/ha, Postemergence, scale 0 to 100 (0 no effect, 100 complete control)
[20] = 62 g ai/ha, Preemergence, scale 0 to 100 (0 no effect, 100 complete control)
[21] = 125 g ai/ha, Postemergence, scale 0 to 100 (0 no effect, 100 complete control)
[22] = 125 g ai/ha, Preemergence, scale 0 to 100 (0 no effect, 100 complete control)
[23] = Postemergence, 16 g ai/ha, visual, scale 0 no effect to 100 complete control
[24] = Postemergence, 31 g ai/ha, visual, scale 0 no effect to 100 complete control
[25] = Preemergence, 16 g ai/ha, scale 0 to 100, 0 no effect, 100 complete control
[26] = Preemergence, 31 g ai/ha, scale 0 to 100, 0 no effect, 100 complete control
[27] = 62 g ai/ha, scale 0 to 100 (0 no effect, 100 complete control)
[28] = 16 g ai/ha, scale 0 to 100, 0 no effect, 100 complete control
[29] = 31 g ai/ha, scale 0 to 100, 0 no effect, 100 complete control

CCCC(=O)Oc1c(C)nn(C)c(=O)c1-c1c(C)sc2ccc(C)cc12 [Compound 105]
100: Plant response rating, Waterhemp_RES1 [1, 18] | Plant response rating, Kochia [4, 21] | Plant response rating, Kochia [4, 22] | Plant response rating, Horseweed [8, 20] | Plant response rating, Horseweed [8, 22] | Plant response rating, Ryegrass, Italian [10, 22] | Plant response rating, Beggarticks [12, 19] | Plant response rating, Beggarticks [12, 20] | Plant response rating, Beggarticks [12, 21] | Plant response rating, Beggarticks [12, 22]
40: Plant response rating, Waterhemp_RES2 [2, 16] | Plant response rating, Crabgrass, Brazil [13, 19] | Plant response rating, Sandbur [15, 24]
25: Plant response rating, Soybean [11, 21]
85: Plant response rating, Horseweed [8, 19] | Plant response rating, Horseweed [8, 24]
70: Plant response rating, Waterhemp_RES2 [2, 18] | Plant response rating, Pigweed, Palmer [3, 19] | Plant response rating, Pigweed, Palmer [3, 21] | Plant response rating, Pigweed, Palmer [3, 24] | Plant response rating, Ragweed [9, 23] | Plant response rating, Ryegrass, Italian [10, 19] | Plant response rating, Sandbur [15, 20]
5: Plant response rating, Crabgrass, Brazil [13, 23]
98: Plant response rating, Pigweed, Palmer [3, 20] | Plant response rating, Ragweed [9, 22]
90: Plant response rating, Pigweed, Palmer [3, 22] | Plant response rating, Kochia [4, 19] | Plant response rating, Ragweed [9, 19] | Plant response rating, Ryegrass, Italian [10, 26] | Plant response rating, Beggarticks [12, 24] | Plant response rating, Beggarticks [12, 25]
20: Plant response rating, Barnyardgrass [5, 20] | Plant response rating, Barnyardgrass [5, 24] | Plant response rating, Barnyardgrass [5, 25] | Plant response rating, Crabgrass, Brazil [13, 24]
50: Plant response rating, Waterhemp_RES2 [2, 17] | Plant response rating, Crabgrass, Large [6, 27] | Plant response rating, Ragweed [9, 25] | Plant response rating, Ryegrass, Italian [10, 24] | Plant response rating, Crabgrass, Brazil [13, 21] | Plant response rating, Dayflower, VA [14, 19] | Plant response rating, Sandbur [15, 21]
0: Plant response rating, Pigweed, Palmer [3, 25] | Plant response rating, Pigweed, Palmer [3, 26] | Plant response rating, Kochia [4, 25] | Plant response rating, Kochia [4, 26] | Plant response rating, Crabgrass, Large [6, 28] | Plant response rating, Crabgrass, Large [6, 29] | Plant response rating, Goosegrass [7, 27] | Plant response rating, Goosegrass [7, 28] | Plant response rating, Goosegrass [7, 29] | Plant response rating, Horseweed [8, 25] | Plant response rating, Horseweed [8, 26] | Plant response rating, Soybean [11, 20] | Plant response rating, Soybean [11, 23] | Plant response rating, Soybean [11, 25] | Plant response rating, Soybean [11, 26] | Plant response rating, Crabgrass, Brazil [13, 26] | Plant response rating, Dayflower, VA [14, 20] | Plant response rating, Dayflower, VA [14, 25] | Plant response rating, Dayflower, VA [14, 26] | Plant response rating, Sandbur [15, 25]
65: Plant response rating, Ragweed [9, 26]
30: Plant response rating, Barnyardgrass [5, 19] | Plant response rating, Barnyardgrass [5, 21] | Plant response rating, Ryegrass, Italian [10, 23] | Plant response rating, Dayflower, VA [14, 23] | Plant response rating, Dayflower, VA [14, 24] | Plant response rating, Sandbur [15, 23]
10: Plant response rating, Goosegrass [7, 18] | Plant response rating, Soybean [11, 24] | Plant response rating, Dayflower, VA [14, 22]
80: Plant response rating, Waterhemp_RES1 [1, 16] | Plant response rating, Waterhemp_RES1 [1, 17] | Plant response rating, Kochia [4, 23] | Plant response rating, Kochia [4, 24] | Plant response rating, Horseweed [8, 23] | Plant response rating, Ryegrass, Italian [10, 21] | Plant response rating, Beggarticks [12, 23] | Plant response rating, Beggarticks [12, 26]
35: Plant response rating, Kochia [4, 20] | Plant response rating, Barnyardgrass [5, 22] | Plant response rating, Crabgrass, Brazil [13, 20]
75: Plant response rating, Pigweed, Palmer [3, 23] | Plant response rating, Crabgrass, Large [6, 18] | Plant response rating, Ryegrass, Italian [10, 25] | Plant response rating, Soybean [11, 22] | Plant response rating, Crabgrass, Brazil [13, 22] | Plant response rating, Sandbur [15, 22]
60: Plant response rating, Dayflower, VA [14, 21]
95: Plant response rating, Ragweed [9, 20] | Plant response rating, Ragweed [9, 21] | Plant response rating, Ryegrass, Italian [10, 20]
15: Plant response rating, Barnyardgrass [5, 23] | Plant response rating, Sandbur [15, 26]
